Measured values taken from patent US12630829B2, “Gene encoding cytochrome P450 and use thereof” (KUMIAI CHEMICAL INDUSTRY CO., LTD., priority 2020, dated 2026).
Where a name gives a salt, the structure may show the parent alone.

System: Arabidopsis thaliana having AK454412 introduced thereinto and wild type
Assay: Test of sensitivity to various drugs, AK454412-introduced versus wild type Arabidopsis thaliana
Assay type: in vivo
Conditions: evaluated subjectively based on drug concentration exhibiting the effect; 0, 0.1, 1, 10, 100, 1,000 nM
Procedure: Therefore, similar tests were performed on compounds having various acting properties described in HRAC including these sulfonylurea-based ALS inhibitors to search for a compound that can be metabolically degraded by AK454412. Specifically, 61 compounds arbitrarily selected from all of the 25 classifications of HRAC 2020 were subjected to sensitivity examination in Arabidopsis thaliana having AK454412 introduced thereinto and wild type. The sensitivity to each of the drugs was evaluated subjectively with respect to every acting symptom.
As a result, compounds found to have a difference in the sensitivity between the wild type and the recombinant Arabidopsis thaliana are illustrated in FIGS. 10-1 to 10-4. It is noted that concentrations of the drug in respective wells of a plate shown in each photograph in FIGS. 10-1 to 10-4 are 0, 0.1, and 1 nM in the stated order in the rightward direction in an upper portion, and 10, 100, and 1,000 nM in the stated order in the rightward direction in a lower portion. Besides, the compound found to have a sensitivity difference are listed below.

Molecule	approximate sensitivity difference between wild type and recombinant Arabidopsis thaliana
COc1cc(OC)nc(Oc2cccc(Oc3nc(OC)cc(OC)n3)c2C(=O)[O-])n1.[Na+] [Bispyribac-sodium salt, bispyribac-sodium salt]	< 5
COC(=O)NS(=O)(=O)c1ccc(N)cc1 [asulam]	< 10
COC(=O)c1ccccc1CS(=O)(=O)NC(=O)Nc1nc(OC)cc(OC)n1 [bensulfuron-methyl]	10
CC(C)N1C(=O)c2ccccc2NS1(=O)=O [bentazone]	< 5
O=C(Nc1ccc(F)cc1F)c1cccnc1Oc1cccc(C(F)(F)F)c1 [diflufenican]	2
CS(=O)(=O)NC(=O)c1cc(Oc2ccc(C(F)(F)F)cc2Cl)ccc1[N+](=O)[O-] [fomesafen]	3
CC(C)C1(C)N=C(c2nc3ccccc3cc2C(=O)O)NC1=O (centres unmarked) [imazaquin]	≤ 10
CNc1cnn(-c2cccc(C(F)(F)F)c2)c(=O)c1Cl [norflurazon]	2
CCC(CC)Nc1c([N+](=O)[O-])cc(C)c(C)c1[N+](=O)[O-] [pendimethalin]	< 100
COc1cnc(OC)n2nc(NS(=O)(=O)c3c(OCC(F)F)cccc3C(F)(F)F)nc12 [penoxsulam]	100
O=C(Nc1ccc(F)cc1)c1cccc(Oc2cccc(C(F)(F)F)c2)n1 [picolinafen]	2
CCOC(=O)COc1cc(-c2nn(C)c(OC(F)F)c2Cl)c(F)cc1Cl [pyraflufen-ethyl]	10
COCc1cccc(C(O)c2nc(OC)cc(OC)n2)c1NS(=O)(=O)C(F)F (centres unmarked) [pyrimisulfan]	100
COc1cc(OC)nc(Sc2cccc(Cl)c2C(=O)O)n1 [pyrithiobac-sodium salt]	100
Cc1nn(-c2cc(NS(C)(=O)=O)c(Cl)cc2Cl)c(=O)n1C(F)F [sulfentrazone]	10
COC(=O)c1ccccc1S(=O)(=O)NC(=O)Nc1nc(C)cc(C)n1 [sulfometuron-methyl]	5
fluridone	2
oxadiargyl	2

System: not given
Assay: not given
Conditions: main metabolite of fenquinotrione in a wheat body; cited from earlier work

Molecule	herbicidal activity
O=C1CCCC(=O)C1C(=O)c1nc2c(Cl)cccc2n(-c2ccc(O)cc2)c1=O [demethylated product of fenquinotrione]	does not exhibit herbicidal activity

System: CYP81A6
Assay: not given
Conditions: reported so far; cited from earlier work

Molecule	metabolic reactivity of CYP81A6 against the compound
COC(=O)c1ccccc1CS(=O)(=O)NC(=O)Nc1nc(OC)cc(OC)n1 [bensulfuron-methyl]	exhibits metabolic reactivity
CC(C)N1C(=O)c2ccccc2NS1(=O)=O [bentazone]	exhibits metabolic reactivity
CO/N=C(/C)c1cccc(Oc2nc(OC)cc(OC)n2)c1C(=O)OC [pyriminobac-methyl]	exhibits metabolic reactivity
COCc1cccc(C(O)c2nc(OC)cc(OC)n2)c1NS(=O)(=O)C(F)F (centres unmarked) [pyrimisulfan]	exhibits metabolic reactivity
